# Patent US20210254272A1, “TEXTILES HAVING ANTIMICROBIAL PROPERTIES” (Livinguard AG, priority 2015, published 2021)
# Tested on: E. coli (ATCC 25922)
# Assay: AATCC Test Method 100-2012 antibacterial activity of the treated textile, after 25 washes and 12 abrasion cycles, contact time 60 minutes
# Format: cell-based
# Settings: for Performance Test-Log reduction of antimicrobial performance: pad process, 2 min
# Protocol: The antibacterial activity of the textile was tested in accordance with AATCC Test Method 100-2012. Prior to the test, the fabric was cut into coupons of 2×4 inches and washed separately 25 times, and exposed to 12 abrasion cycles, as per US EPA protocol 90072PA4 (described further below). The tests were made against E. coli (ATCC 25922). Contact time was 60 minutes, after inoculating with 10^8 CFU per coupon.
compound,measurement,setting,value
"CCCC1COC(Cn2cncn2)(c2ccc(Cl)cc2Cl)O1 (stereo not shown) [Propiconazole, propiconazole]",Performance Test-Log reduction of antimicrobial performance,"single agent 5 gm/lit, curing 180° C.",0.98 Log
same,Performance Test-Log reduction of antimicrobial performance,"single agent 10 gm/lit, curing 120° C.",0.25 Log
same,Performance Test-Log reduction of antimicrobial performance,"single agent 10 gm/lit, curing 140° C.",0.38 Log
same,Performance Test-Log reduction of antimicrobial performance,"single agent 10 gm/lit, curing 150° C.",0.42 Log
same,Performance Test-Log reduction of antimicrobial performance,"single agent 10 gm/lit, curing 160° C.",0.56 Log
same,Performance Test-Log reduction of antimicrobial performance,"single agent 10 gm/lit, curing 180° C.",2.11 Log
same,Log reduction of antimicrobial performance,"pure cotton fabric, exhaust 80° C., 60 min, dosage 0.1% o.w.f",0.63 Log
same,Log reduction of antimicrobial performance,"pure cotton fabric, exhaust 80° C., 60 min, dosage 0.2% o.w.f",1.45 Log
same,Log reduction of antimicrobial performance,"pure cotton fabric, exhaust 80° C., 60 min, dosage 0.5% o.w.f",1.95 Log
same,Log reduction of antimicrobial performance,"pure cotton fabric, exhaust 80° C., 60 min, dosage 0.8% o.w.f",2.34 Log
same,Log reduction of antimicrobial performance,"pure cotton fabric, exhaust 80° C., 60 min, dosage 1.0% o.w.f",2.85 Log
same,Log reduction of antimicrobial performance,"pure cotton, exhaust 80° C., 1% o.w.f, 60 min, curing 180° C., curing dwell time 0.5 min",0.4 Log
same,Log reduction of antimicrobial performance,"pure cotton, exhaust 80° C., 1% o.w.f, 60 min, curing 180° C., curing dwell time 1.0 min",0.8 Log
same,Log reduction of antimicrobial performance,"pure cotton, exhaust 80° C., 1% o.w.f, 60 min, curing 180° C., curing dwell time 1.5 min",2.2 Log
same,Log reduction of antimicrobial performance,"pure cotton, exhaust 80° C., 1% o.w.f, 60 min, curing 180° C., curing dwell time 2.0 min",2.8 Log
same,Log reduction of antimicrobial performance,"pure cotton, exhaust 80° C., 1% o.w.f, 60 min, curing 180° C., curing dwell time 2.5 min",2.3 Log
same,Log reduction of antimicrobial performance,"pure cotton, exhaust 80° C., 1% o.w.f, 60 min, curing 180° C., curing dwell time 3.0 min",1.2 Log
same,Log reduction of antimicrobial performance,"pure polyester fabric, exhaust 80° C., 60 min, curing 180° C., curing dwell time 0.5 min",0.4 Log
same,Log reduction of antimicrobial performance,"pure polyester fabric, exhaust 80° C., 60 min, curing 180° C., curing dwell time 1.0 min",0.8 Log
same,Log reduction of antimicrobial performance,"pure polyester fabric, exhaust 80° C., 60 min, curing 180° C., curing dwell time 1.5 min",2.2 Log
same,Log reduction of antimicrobial performance,"pure polyester fabric, exhaust 80° C., 60 min, curing 180° C., curing dwell time 2.0 min",2.74 Log
same,Log reduction of antimicrobial performance,"pure polyester fabric, exhaust 80° C., 60 min, curing 180° C., curing dwell time 2.5 min",2.35 Log
same,Log reduction of antimicrobial performance,"pure polyester fabric, exhaust 80° C., 60 min, curing 180° C., curing dwell time 3.0 min",1.2 Log
same,Log reduction of antimicrobial performance,"pure polyester fabric, exhaust 80° C., 60 min, dosage 0.1% o.w.f",0.57 Log
same,Log reduction of antimicrobial performance,"pure polyester fabric, exhaust 80° C., 60 min, dosage 0.2% o.w.f",1.35 Log
same,Log reduction of antimicrobial performance,"pure polyester fabric, exhaust 80° C., 60 min, dosage 0.5% o.w.f",1.67 Log
same,Log reduction of antimicrobial performance,"pure polyester fabric, exhaust 80° C., 60 min, dosage 0.8% o.w.f",2.14 Log
same,Log reduction of antimicrobial performance,"pure polyester fabric, exhaust 80° C., 60 min, dosage 1.0% o.w.f",2.73 Log
same,Log reduction of antimicrobial performance,"solution dosage 0.10% o.w.f, exhaust temperature 40° C., process time 60 min",0 Log
same,Log reduction of antimicrobial performance,"solution dosage 0.10% o.w.f, exhaust temperature 60° C., process time 60 min",0 Log
same,Log reduction of antimicrobial performance,"solution dosage 0.10% o.w.f, exhaust temperature 65° C., process time 60 min",0 Log
same,Log reduction of antimicrobial performance,"solution dosage 0.10% o.w.f, exhaust temperature 70° C., process time 60 min",0 Log
same,Log reduction of antimicrobial performance,"solution dosage 0.10% o.w.f, exhaust temperature 75° C., process time 60 min",0.59 Log
same,Log reduction of antimicrobial performance,"solution dosage 0.10% o.w.f, exhaust temperature 80° C., process time 60 min",0.56 Log
same,Log reduction of antimicrobial performance,"solution dosage 0.10% o.w.f, exhaust temperature 85° C., process time 60 min",0.83 Log
same,Log reduction of antimicrobial performance,"solution dosage 0.10% o.w.f, exhaust temperature 90° C., process time 60 min",0.83 Log
same,Log reduction of antimicrobial performance,"solution dosage 0.10% o.w.f, exhaust temperature 95° C., process time 60 min",0.83 Log
same,Log reduction of antimicrobial performance,"solution dosage 0.20% o.w.f, exhaust temperature 40° C., process time 60 min",0 Log
same,Log reduction of antimicrobial performance,"solution dosage 0.20% o.w.f, exhaust temperature 60° C., process time 60 min",0.08 Log
same,Log reduction of antimicrobial performance,"solution dosage 0.20% o.w.f, exhaust temperature 65° C., process time 60 min",0.09 Log
same,Log reduction of antimicrobial performance,"solution dosage 0.20% o.w.f, exhaust temperature 70° C., process time 60 min",0.12 Log
same,Log reduction of antimicrobial performance,"solution dosage 0.20% o.w.f, exhaust temperature 75° C., process time 60 min",0.89 Log
same,Log reduction of antimicrobial performance,"solution dosage 0.20% o.w.f, exhaust temperature 80° C., process time 60 min",1.34 Log
same,Log reduction of antimicrobial performance,"solution dosage 0.20% o.w.f, exhaust temperature 85° C., process time 60 min",1.45 Log
same,Log reduction of antimicrobial performance,"solution dosage 0.20% o.w.f, exhaust temperature 90° C., process time 60 min",1.45 Log
same,Log reduction of antimicrobial performance,"solution dosage 0.20% o.w.f, exhaust temperature 95° C., process time 60 min",1.45 Log
same,Log reduction of antimicrobial performance,"solution dosage 0.50% o.w.f, exhaust temperature 40° C., process time 60 min",0 Log
same,Log reduction of antimicrobial performance,"solution dosage 0.50% o.w.f, exhaust temperature 60° C., process time 60 min",0.12 Log
same,Log reduction of antimicrobial performance,"solution dosage 0.50% o.w.f, exhaust temperature 65° C., process time 60 min",0.13 Log
same,Log reduction of antimicrobial performance,"solution dosage 0.50% o.w.f, exhaust temperature 70° C., process time 60 min",0.19 Log
same,Log reduction of antimicrobial performance,"solution dosage 0.50% o.w.f, exhaust temperature 75° C., process time 60 min",1.12 Log
same,Log reduction of antimicrobial performance,"solution dosage 0.50% o.w.f, exhaust temperature 80° C., process time 60 min",1.98 Log
same,Log reduction of antimicrobial performance,"solution dosage 0.50% o.w.f, exhaust temperature 85° C., process time 60 min",2.04 Log
same,Log reduction of antimicrobial performance,"solution dosage 0.50% o.w.f, exhaust temperature 90° C., process time 60 min",2.06 Log
same,Log reduction of antimicrobial performance,"solution dosage 0.50% o.w.f, exhaust temperature 95° C., process time 60 min",2.06 Log
same,Log reduction of antimicrobial performance,"solution dosage 0.80% o.w.f, exhaust temperature 40° C., process time 60 min",0 Log
same,Log reduction of antimicrobial performance,"solution dosage 0.80% o.w.f, exhaust temperature 60° C., process time 60 min",0.18 Log
same,Log reduction of antimicrobial performance,"solution dosage 0.80% o.w.f, exhaust temperature 65° C., process time 60 min",0.19 Log
same,Log reduction of antimicrobial performance,"solution dosage 0.80% o.w.f, exhaust temperature 70° C., process time 60 min",0.23 Log
same,Log reduction of antimicrobial performance,"solution dosage 0.80% o.w.f, exhaust temperature 75° C., process time 60 min",1.35 Log
same,Log reduction of antimicrobial performance,"solution dosage 0.80% o.w.f, exhaust temperature 80° C., process time 60 min",2.34 Log
same,Log reduction of antimicrobial performance,"solution dosage 0.80% o.w.f, exhaust temperature 85° C., process time 60 min",2.56 Log
same,Log reduction of antimicrobial performance,"solution dosage 0.80% o.w.f, exhaust temperature 90° C., process time 60 min",2.61 Log
same,Log reduction of antimicrobial performance,"solution dosage 0.80% o.w.f, exhaust temperature 95° C., process time 60 min",2.61 Log
same,Log reduction of antimicrobial performance,"solution dosage 1.00% o.w.f, exhaust temperature 40° C., process time 60 min",0 Log
same,Log reduction of antimicrobial performance,"solution dosage 1.00% o.w.f, exhaust temperature 60° C., process time 60 min",0.25 Log
same,Log reduction of antimicrobial performance,"solution dosage 1.00% o.w.f, exhaust temperature 65° C., process time 60 min",0.26 Log
same,Log reduction of antimicrobial performance,"solution dosage 1.00% o.w.f, exhaust temperature 70° C., process time 60 min",0.32 Log
same,Log reduction of antimicrobial performance,"solution dosage 1.00% o.w.f, exhaust temperature 75° C., process time 60 min",1.42 Log
same,Log reduction of antimicrobial performance,"solution dosage 1.00% o.w.f, exhaust temperature 80° C., process time 60 min",2.87 Log
same,Log reduction of antimicrobial performance,"solution dosage 1.00% o.w.f, exhaust temperature 85° C., process time 60 min",2.89 Log
same,Log reduction of antimicrobial performance,"solution dosage 1.00% o.w.f, exhaust temperature 90° C., process time 60 min",2.91 Log
same,Log reduction of antimicrobial performance,"solution dosage 1.00% o.w.f, exhaust temperature 95° C., process time 60 min",2.91 Log
